The values below are quoted from earlier work in patent publication US10285987B2, “Device and kit for dosing and dispensing non-liquid medicine” (AmpliPharm Pharmaceuticals, LLC, priority 2017, dated 2019).

The conditions of this series: skin contact.

With `Cn1nnc2c(C(N)=O)ncn2c1=O` [temozolomide, 3,4-dihydro-3-methyl-4-oxoimidazo [5,1-d]-as-tetrazine-8-carboxamide], the “classification for skin corrosion/irritation and eye irritation” value is “category 2”.
